20 compounds from patent publication US20250034159A1, “INHIBITORS OF EPIDERMAL GROWTH FACTOR RECEPTOR” (ORIC Pharmaceuticals, Inc., priority 2021, published 2025) can be followed below.

Read-outs that look alike come from different tables or passages of the source.

The target of assay [1] is recombinant human EGFR L858R/C797S double mutant protein (Homo sapiens (Human), UniProt P00533, C797S/L858R). The experiment in a line: Biological Activity Assay B: biochemical assay against EGFR L858R/C797S protein (EGFR LR/CS). In short, it runs like this:
(§1)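 Compounds were tested as 16-point serial dilutions (final DMSO 2.5%) with a Phosphosens peptide sensor/ATP working solution (40 uM/4 mM). The signal was read kinetically over 90 cycles at 120 s intervals. IC50s came from 4-parameter fits of per-well slopes.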

The target of assay [2] is recombinant human EGFR exon 19 deletion/C797S double mutant protein (Homo sapiens (Human), UniProt P00533, C797S/DEL746-750). The experiment in a line: Biological Activity Assay C: biochemical assay against EGFR exon 19 deletion/C797S protein (EGFR d19/CS). Put shortly: as §1
For assay [3], the system named is Ba/F3_EGFR WT cells. The experiment in a line: Biological Activity Assay D: BaF3 cell proliferation assay, EGFR wild-type (BaF3 WT). The assay is classed as cell-based. As to conditions: Ba/F3 EGFR, read-out: BaF3 WT IC50.
Assay [4] has as its system BaF3_EGFR LR/CS cells. The experiment in a line: Biological Activity Assay D: BaF3 cell proliferation assay, EGFR L858R/C797S mutant (BaF3 LR/CS). The assay is classed as cell-based. As to conditions: Ba/F3 EGFR, read-out: BaF3 LR/CS IC50.
Assay [5] has as its system BaF3_EGFR d19/CS cells. The experiment in a line: Biological Activity Assay D: BaF3 cell proliferation assay, EGFR exon 19 deletion/C797S (BaF3 d19/CS). The assay is classed as cell-based. Conditions: Ba/F3 EGFR, read-out: BaF3 d19/CS IC50.
The mark [6] stands for this setting: Ba/F3_EGFR WT cells, ~72 hours, CellTiter-Glo.
The mark [7] stands for this setting: BaF3_EGFR LR/CS cells, ~72 hours, CellTiter-Glo.
Where [8] appears, read: BaF3_EGFR d19/CS cells, ~72 hours, CellTiter-Glo.

Chain of recombinant human EGFR L858R/C797S double mutant protein (P00533 25-1210 C797S/L858R): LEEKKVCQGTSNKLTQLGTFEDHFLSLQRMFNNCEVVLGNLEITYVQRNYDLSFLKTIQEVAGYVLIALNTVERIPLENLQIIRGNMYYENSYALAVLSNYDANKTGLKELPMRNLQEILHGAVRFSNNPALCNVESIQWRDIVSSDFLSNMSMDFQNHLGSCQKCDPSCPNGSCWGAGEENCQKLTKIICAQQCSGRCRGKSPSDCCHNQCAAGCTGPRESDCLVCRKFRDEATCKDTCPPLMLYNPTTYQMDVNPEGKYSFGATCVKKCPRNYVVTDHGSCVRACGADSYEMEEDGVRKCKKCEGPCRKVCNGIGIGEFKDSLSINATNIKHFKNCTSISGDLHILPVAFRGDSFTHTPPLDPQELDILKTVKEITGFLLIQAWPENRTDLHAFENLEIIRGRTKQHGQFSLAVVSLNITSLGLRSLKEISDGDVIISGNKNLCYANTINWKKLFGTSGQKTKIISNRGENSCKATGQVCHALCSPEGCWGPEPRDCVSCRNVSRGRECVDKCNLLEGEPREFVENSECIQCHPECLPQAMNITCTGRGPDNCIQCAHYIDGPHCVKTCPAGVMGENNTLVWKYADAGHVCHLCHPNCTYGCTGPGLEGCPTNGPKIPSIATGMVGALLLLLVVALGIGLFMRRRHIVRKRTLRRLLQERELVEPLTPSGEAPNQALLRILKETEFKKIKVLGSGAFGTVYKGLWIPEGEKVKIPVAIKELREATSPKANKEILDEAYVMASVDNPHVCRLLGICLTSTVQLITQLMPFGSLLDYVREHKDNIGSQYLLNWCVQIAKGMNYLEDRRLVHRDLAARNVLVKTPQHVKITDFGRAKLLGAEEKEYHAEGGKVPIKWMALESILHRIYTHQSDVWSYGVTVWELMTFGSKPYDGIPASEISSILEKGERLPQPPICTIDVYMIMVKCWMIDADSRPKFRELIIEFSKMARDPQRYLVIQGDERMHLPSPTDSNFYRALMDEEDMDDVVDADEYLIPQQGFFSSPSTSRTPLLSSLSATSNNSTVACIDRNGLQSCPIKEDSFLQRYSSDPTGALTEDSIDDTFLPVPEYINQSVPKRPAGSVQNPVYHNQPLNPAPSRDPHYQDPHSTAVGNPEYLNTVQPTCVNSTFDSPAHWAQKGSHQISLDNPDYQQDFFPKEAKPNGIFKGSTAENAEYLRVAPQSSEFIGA
Chain of recombinant human EGFR exon 19 deletion/C797S double mutant protein (P00533 other isoform, or with tags, fused parts or gaps C797S/del 1-668/del 746-750 limits assumed): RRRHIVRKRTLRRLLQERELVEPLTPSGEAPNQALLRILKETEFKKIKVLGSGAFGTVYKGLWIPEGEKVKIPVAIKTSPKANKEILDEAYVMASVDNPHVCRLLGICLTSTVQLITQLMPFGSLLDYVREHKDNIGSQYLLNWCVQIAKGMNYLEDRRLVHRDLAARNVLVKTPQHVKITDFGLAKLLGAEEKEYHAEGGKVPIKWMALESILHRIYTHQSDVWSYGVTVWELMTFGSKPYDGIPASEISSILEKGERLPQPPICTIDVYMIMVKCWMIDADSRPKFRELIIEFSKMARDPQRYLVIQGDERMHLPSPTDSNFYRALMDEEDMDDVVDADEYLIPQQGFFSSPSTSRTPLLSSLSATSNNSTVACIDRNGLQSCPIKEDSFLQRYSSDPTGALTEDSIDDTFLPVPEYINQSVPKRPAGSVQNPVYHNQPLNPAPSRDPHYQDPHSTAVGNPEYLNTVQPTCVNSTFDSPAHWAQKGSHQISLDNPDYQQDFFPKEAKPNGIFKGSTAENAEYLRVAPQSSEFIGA

For the compound `O[C@H]1C[C@H](Cn2cc(-c3ncnc4oc(-c5ccccc5)cc34)c(-c3ccc(F)cc3)n2)C1` [Example 43, (1r,3r)-3-{[3-(4-Fluorophenyl)-4-(6-phenylfuro[2,3-d]pyrimidin-4-yl)-1H-pyrazol-1-yl]methyl}cyclobutan-1-ol], the IC50 is 0.39 nM in assay [1]; 0.24 nM in assay [2]; 2240 nM in assay [3] (setting [6]); 73.2 nM in assay [4] (setting [7]); 40 nM in assay [5] (setting [8]).
`CC(C)(O)CCc1nc(-c2ccc(F)cc2)c(-c2ncnc3oc(-c4ccccc4)cc23)o1` [Example 44, 4-[4-(4-fluorophenyl)-5-(6-phenylfuro[2,3-d]pyrimidin-4-yl)-1,3-oxazol-2-yl]-2-methylbutan-2-ol]: the IC50 turned out to be 2.76 nM in assay [1]; 1.79 nM in assay [2]; 6650 nM in assay [3] (setting [6]); 263 nM in assay [4] (setting [7]); 421 nM in assay [5] (setting [8]).
`Fc1ccc(-c2nn(CCCC(F)F)cc2-c2ncnc3oc(-c4ccccc4)cc23)cc1` [Example 45, 4-[1-(4,4-Difluorobutyl)-3-(4-fluorophenyl)-1H-pyrazol-4-yl]-6-phenylfuro[2,3-d]pyrimidine]: the IC50 was found to be 1.12 nM in assay [1]; 1.51 nM in assay [2]; 2290 nM in assay [3] (setting [6]); 185 nM in assay [4] (setting [7]); 37.5 nM in assay [5] (setting [8]).
Consider `CC(C)(O)Cn1cc(-c2ncnc3oc(-c4ccccc4)cc23)c(-c2ccc(F)cc2)n1` [Example 46, 1-[3-(4-Fluorophenyl)-4-(6-phenylfuro[2,3-d]pyrimidin-4-yl)-1H-pyrazol-1-yl]-2-methylpropan-2-ol], for which the IC50 in assay [1] came to 0.389 nM; in assay [2] it was 0.317 nM; in assay [3] (setting [6]) it was 2160 nM; in assay [4] (setting [7]), 41.1 nM; in assay [5] (setting [8]), 21.1 nM.
Taken in the same sequence, the figures for `Fc1ccc(-c2nn(CC3COC3)cc2-c2ncnc3oc(-c4ccccc4)cc23)cc1` [Example 47, 4-{3-(4-Fluorophenyl)-1-[(oxetan-3-yl)methyl]-1H-pyrazol-4-yl}-6-phenylfuro[2,3-d]pyrimidine] were 0.594 nM, 0.473 nM, 4530 nM, 92.5 nM and 72.5 nM.
As for `NC(=O)CCc1nc(-c2ccc(F)cc2)c(-c2ncnc3oc(-c4ccccc4)cc23)o1` [Example 49, 3-[4-(4-fluorophenyl)-5-(6-phenylfuro[2,3-d]pyrimidin-4-yl)-1,3-oxazol-2-yl]propanamide], the IC50 is 3.42 nM in assay [1]; 1.77 nM in assay [2]; 20000 nM in assay [3] (setting [6]); 132 nM in assay [4] (setting [7]); 250 nM in assay [5] (setting [8]).
Consider `CN(C)S(=O)(=O)CCn1cc(-c2ncnc3oc(-c4ccccc4)cc23)c(-c2ccc(F)cc2)n1` [Example 50, 2-[3-(4-fluorophenyl)-4-(6-phenylfuro[2,3-d]pyrimidin-4-yl)-1H-pyrazol-1-yl]-N,N-dimethylethane-1-sulfonamide], for which the IC50 in assay [1] worked out at 0.635 nM; in assay [2], 1.02 nM; in assay [3] (setting [6]), 2080 nM; in assay [4] (setting [7]), 241 nM; in assay [5] (setting [8]) it was 59.1 nM.
For the compound `CN(C)S(=O)(=O)n1cc(-c2ncnc3oc(-c4ccccc4)cc23)c(-c2ccc(F)cc2)n1` [Example 51, 3-(4-fluorophenyl)-N,N-dimethyl-4-(6-phenylfuro[2,3-d]pyrimidin-4-yl)-1H-pyrazole-1-sulfonamide], the IC50 in assay [1] was found to be 17.1 nM; in assay [2], 27.2 nM; in assay [3] (setting [6]) it was 10700 nM; in assay [4] (setting [7]), 770 nM; in assay [5] (setting [8]) it was 972 nM.
`O=S1(=O)CC(CCn2cc(-c3ncnc4oc(-c5ccccc5)cc34)c(-c3ccc(F)cc3)n2)C1` [Example 52, 3-{2-[3-(4-Fluorophenyl)-4-(6-phenylfuro[2,3-d]pyrimidin-4-yl)-1H-pyrazol-1-yl]ethyl}-1λ6-thietane-1,1-dione]: the IC50 turned out to be 0.307 nM in assay [1]; 0.368 nM in assay [2]; 1940 nM in assay [3] (setting [6]); 106 nM in assay [4] (setting [7]); 20.8 nM in assay [5] (setting [8]).
`O[C@H]1C[C@H](Cn2ncc(-c3ncnc4oc(-c5ccccc5)cc34)c2-c2ccc(F)cc2)C1` [Example 54, (1r,3r)-3-{[5-(4-fluorophenyl)-4-(6-phenylfuro[2,3-d]pyrimidin-4-yl)-1H-pyrazol-1-yl]methyl}cyclobutan-1-ol]: the IC50 in assay [1] amounted to 15.8 nM; in assay [2] it was 20.1 nM; in assay [3] (setting [6]) it was 8860 nM; in assay [4] (setting [7]), 992 nM; in assay [5] (setting [8]) it was 837 nM.
As for `CS(=O)(=O)CCCn1cc(-c2ncnc3oc(-c4ccccc4)cc23)c(-c2ccc(F)cc2)n1` [Example 55, 4-{3-(4-Fluorophenyl)-1-[3-(methanesulfonyl)propyl]-1H-pyrazol-4-yl}-6-phenylfuro[2,3-d]pyrimidine], the IC50 in assay [1] was 0.247 nM; in assay [2], 0.29 nM; in assay [3] (setting [6]), 1280 nM; in assay [4] (setting [7]), 78.5 nM; in assay [5] (setting [8]), 21.4 nM.
Regarding `CS(=O)(=O)n1ncc(-c2ncnc3oc(-c4ccccc4)cc23)c1-c1ccc(F)cc1` [Example 56, 4-[5-(4-fluorophenyl)-1-(methanesulfonyl)-1H-pyrazol-4-yl]-6-phenylfuro[2,3-d]pyrimidine], the IC50 in assay [1] was found to be 3.58 nM; in assay [2], 4.58 nM; in assay [3] (setting [6]), 5490 nM; in assay [4] (setting [7]), 224 nM; in assay [5] (setting [8]), 184 nM.
Consider `CC(C)(O)CCc1nc(-c2ccc(F)cc2)c(-c2ncnc3oc(-c4ccccc4)nc23)o1` [Example 57, 4-[4-(4-fluorophenyl)-5-(2-phenyl[1,3]oxazolo[5,4-d]pyrimidin-7-yl)-1,3-oxazol-2-yl]-2-methylbutan-2-ol], for which the IC50 is 16.8 nM in assay [1]; 10.3 nM in assay [2]; 7390 nM in assay [3] (setting [6]); 689 nM in assay [4] (setting [7]); 1290 nM in assay [5] (setting [8]).
With `CC(O)Cn1cc(-c2ncnc3oc(-c4ccccc4)cc23)c(-c2ccc(F)cc2)n1` (stereo not shown) [Example 58, 1-[3-(4-Fluorophenyl)-4-(6-phenylfuro[2,3-d]pyrimidin-4-yl)-1H-pyrazol-1-yl]propan-2-ol], the IC50 amounted to 0.349 nM in assay [1]; 0.177 nM in assay [2]; 2100 nM in assay [3] (72 h); 58.2 nM in assay [4] (72 h); 43.7 nM in assay [5] (72 h).
For `CC1(Cn2cc(-c3ncnc4oc(-c5ccccc5)cc34)c(-c3ccc(F)cc3)n2)COC1` [Example 59, 4-{3-(4-fluorophenyl)-1-[(3-methyloxetan-3-yl)methyl]-1H-pyrazol-4-yl}-6-phenylfuro[2,3-d]pyrimidine], the IC50 in assay [1] was found to be 1.27 nM; in assay [2], 0.752 nM; in assay [3] (setting [6]), 5950 nM; in assay [4] (setting [7]), 236 nM; in assay [5] (setting [8]), 213 nM.
In the case of `Fc1ccc(-c2n[nH]cc2-c2ncnc3oc(-c4ccccc4)cc23)cc1` [Example 60, 4-[3-(4-Fluorophenyl)-1H-pyrazol-4-yl]-6-phenylfuro[2,3-d]pyrimidine], the IC50 in assay [1] came to 0.526 nM; in assay [2] it was 0.419 nM; in assay [3] (setting [6]), 2270 nM; in assay [4] (setting [7]) it was 88.3 nM; in assay [5] (setting [8]), 118 nM.
For the compound `CN(C)S(=O)(=O)CCCn1cc(-c2ncnc3oc(-c4ccccc4)cc23)c(-c2ccc(F)cc2)n1` [Example 61, 3-[3-(4-Fluorophenyl)-4-(6-phenylfuro[2,3-d]pyrimidin-4-yl)-1H-pyrazol-1-yl]-N,N-dimethylpropane-1-sulfonamide], the IC50 worked out at 0.601 nM in assay [1]; 0.907 nM in assay [2]; 1140 nM in assay [3] (setting [6]); 73.2 nM in assay [4] (setting [7]); 24.4 nM in assay [5] (setting [8]).
With `CC(O)CCn1cc(-c2ncnc3oc(-c4ccccc4)cc23)c(-c2ccc(F)cc2)n1` (stereo not shown) [Example 62, 4-[3-(4-Fluorophenyl)-4-(6-phenylfuro[2,3-d]pyrimidin-4-yl)-1H-pyrazol-1-yl]butan-2-ol], the IC50 in assay [1] worked out at 0.527 nM; in assay [2], 0.703 nM; in assay [3] (setting [6]), 1150 nM; in assay [4] (setting [7]) it was 45 nM; in assay [5] (setting [8]), 30.1 nM.
Regarding `Fc1ccc(-c2nn(CCC3COC3)cc2-c2ncnc3oc(-c4ccccc4)cc23)cc1` [Example 64, 4-{3-(4-Fluorophenyl)-1-[2-(oxetan-3-yl)ethyl]-1H-pyrazol-4-yl}-6-phenylfuro[2,3-d]pyrimidine], the IC50 in assay [1] came to 0.779 nM; in assay [2] it was 1.1 nM; in assay [3] (setting [6]) it was 1460 nM; in assay [4] (setting [7]) it was 99.1 nM; in assay [5] (setting [8]), 62.9 nM.
For `NS(=O)(=O)CCCn1cc(-c2ncnc3oc(-c4ccccc4)cc23)c(-c2ccc(F)cc2)n1` [Example 65, 3-[3-(4-Fluorophenyl)-4-(6-phenylfuro[2,3-d]pyrimidin-4-yl)-1H-pyrazol-1-yl]propane-1-sulfonamide] the same measures were 0.263 nM, 0.341 nM, 589 nM, 24.3 nM and 19.9 nM.
